Laboratory results: publication PMC8213057, “Targeting ALK2: An Open Science Approach to Developing Therapeutics for the Treatment of Diffuse Intrinsic Pontine Glioma” (Journal of Medicinal Chemistry, 2020)

How the values were obtained:
CDK6/cyclin D3 = CDK6/cyclin D3 (Homo sapiens, UniProt Q00534); experiment: biochemical; conditions: read-out: % enzyme activity, 1 μM; Run 1, Run 2
TRKC = TRKC (Homo sapiens, UniProt Q16288); conditions: 1 μM; Run 1, Run 2
SRPK1 = SRPK1 (Homo sapiens, UniProt Q96SB4); conditions: 1 μM; Run 1, Run 2
PAK6 = PAK6 (Homo sapiens, UniProt Q9NQU5); experiment: biochemical; conditions: read-out: % enzyme activity, 1 μM; Run 1, Run 2
PKCeta = PKCeta (Homo sapiens, UniProt P24723); conditions: 1 μM; Run 1, Run 2
CDK3/cyclin E = CDK3/cyclin E (Homo sapiens, UniProt Q00526); experiment: biochemical; conditions: read-out: % enzyme activity, 1 μM; Run 1, Run 2
Chain of CDK3/cyclin E (Q00526 whole entry): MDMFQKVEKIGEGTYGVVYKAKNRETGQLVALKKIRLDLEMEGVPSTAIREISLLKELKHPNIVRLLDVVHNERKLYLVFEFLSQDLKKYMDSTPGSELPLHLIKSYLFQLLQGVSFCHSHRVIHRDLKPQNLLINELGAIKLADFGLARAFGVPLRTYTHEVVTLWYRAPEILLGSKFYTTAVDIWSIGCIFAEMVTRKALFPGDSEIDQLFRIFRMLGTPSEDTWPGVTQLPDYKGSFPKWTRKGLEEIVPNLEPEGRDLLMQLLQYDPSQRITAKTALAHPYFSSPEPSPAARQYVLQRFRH
Chain of CDK3/cyclin E (P24864 whole entry, further chain): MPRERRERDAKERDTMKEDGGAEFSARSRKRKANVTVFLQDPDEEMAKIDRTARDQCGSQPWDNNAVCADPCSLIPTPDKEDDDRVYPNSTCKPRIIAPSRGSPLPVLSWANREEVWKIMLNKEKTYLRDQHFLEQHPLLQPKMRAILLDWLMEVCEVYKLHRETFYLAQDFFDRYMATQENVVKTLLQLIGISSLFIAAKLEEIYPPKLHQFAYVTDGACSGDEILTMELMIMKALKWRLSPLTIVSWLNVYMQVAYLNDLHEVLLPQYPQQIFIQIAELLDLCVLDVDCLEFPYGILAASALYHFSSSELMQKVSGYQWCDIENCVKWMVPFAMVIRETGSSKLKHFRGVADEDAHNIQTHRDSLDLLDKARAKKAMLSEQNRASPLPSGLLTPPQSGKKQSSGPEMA

ACK1 = ACK1 (Homo sapiens, UniProt Q07912); experiment: biochemical; conditions: read-out: % enzyme activity, 1 μM; Run 1, Run 2
IR = IR (Homo sapiens, UniProt P06213); experiment: biochemical; conditions: read-out: % enzyme activity, 1 μM; Run 1, Run 2
Chain of IR (P06213 28-1382): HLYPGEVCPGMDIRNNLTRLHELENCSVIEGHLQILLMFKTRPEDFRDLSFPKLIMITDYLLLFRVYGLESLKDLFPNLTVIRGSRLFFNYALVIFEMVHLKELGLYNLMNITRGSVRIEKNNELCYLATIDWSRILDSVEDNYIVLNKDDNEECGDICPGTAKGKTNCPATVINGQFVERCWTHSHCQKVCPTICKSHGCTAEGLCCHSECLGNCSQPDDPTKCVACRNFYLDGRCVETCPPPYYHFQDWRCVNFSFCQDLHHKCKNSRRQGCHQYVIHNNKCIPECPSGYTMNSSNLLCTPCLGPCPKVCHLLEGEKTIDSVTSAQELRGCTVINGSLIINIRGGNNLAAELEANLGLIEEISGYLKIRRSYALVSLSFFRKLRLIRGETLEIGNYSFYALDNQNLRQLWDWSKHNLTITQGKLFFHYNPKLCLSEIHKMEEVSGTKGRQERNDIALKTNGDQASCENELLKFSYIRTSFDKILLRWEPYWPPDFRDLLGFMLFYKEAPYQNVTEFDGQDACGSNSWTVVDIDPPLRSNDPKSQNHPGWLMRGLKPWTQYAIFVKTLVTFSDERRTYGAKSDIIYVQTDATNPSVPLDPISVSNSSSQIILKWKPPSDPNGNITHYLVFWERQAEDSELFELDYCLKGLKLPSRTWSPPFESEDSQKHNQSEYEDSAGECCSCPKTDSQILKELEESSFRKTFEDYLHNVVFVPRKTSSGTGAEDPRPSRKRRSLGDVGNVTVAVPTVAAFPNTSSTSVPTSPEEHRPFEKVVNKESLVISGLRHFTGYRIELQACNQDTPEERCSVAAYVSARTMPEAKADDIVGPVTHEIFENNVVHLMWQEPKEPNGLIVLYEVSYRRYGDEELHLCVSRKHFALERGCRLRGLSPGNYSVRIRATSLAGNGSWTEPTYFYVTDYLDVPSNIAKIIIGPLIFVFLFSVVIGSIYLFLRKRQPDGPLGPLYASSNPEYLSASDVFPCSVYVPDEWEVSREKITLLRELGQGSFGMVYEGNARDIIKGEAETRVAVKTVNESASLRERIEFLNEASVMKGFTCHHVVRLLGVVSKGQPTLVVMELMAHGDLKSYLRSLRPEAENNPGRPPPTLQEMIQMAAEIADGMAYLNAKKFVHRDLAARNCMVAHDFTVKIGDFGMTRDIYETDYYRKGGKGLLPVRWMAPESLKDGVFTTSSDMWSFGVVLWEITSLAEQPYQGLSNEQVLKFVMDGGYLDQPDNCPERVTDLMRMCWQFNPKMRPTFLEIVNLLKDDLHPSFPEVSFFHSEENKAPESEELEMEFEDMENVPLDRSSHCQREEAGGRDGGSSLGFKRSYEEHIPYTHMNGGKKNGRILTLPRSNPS

PKCa = PKCa (Homo sapiens, UniProt P17252); conditions: 1 μM; Run 1, Run 2
EPHA4 = EPHA4 (Homo sapiens, UniProt P54764); conditions: 1 μM; Run 1, Run 2
Chain of EPHA4 (P54764 20-986): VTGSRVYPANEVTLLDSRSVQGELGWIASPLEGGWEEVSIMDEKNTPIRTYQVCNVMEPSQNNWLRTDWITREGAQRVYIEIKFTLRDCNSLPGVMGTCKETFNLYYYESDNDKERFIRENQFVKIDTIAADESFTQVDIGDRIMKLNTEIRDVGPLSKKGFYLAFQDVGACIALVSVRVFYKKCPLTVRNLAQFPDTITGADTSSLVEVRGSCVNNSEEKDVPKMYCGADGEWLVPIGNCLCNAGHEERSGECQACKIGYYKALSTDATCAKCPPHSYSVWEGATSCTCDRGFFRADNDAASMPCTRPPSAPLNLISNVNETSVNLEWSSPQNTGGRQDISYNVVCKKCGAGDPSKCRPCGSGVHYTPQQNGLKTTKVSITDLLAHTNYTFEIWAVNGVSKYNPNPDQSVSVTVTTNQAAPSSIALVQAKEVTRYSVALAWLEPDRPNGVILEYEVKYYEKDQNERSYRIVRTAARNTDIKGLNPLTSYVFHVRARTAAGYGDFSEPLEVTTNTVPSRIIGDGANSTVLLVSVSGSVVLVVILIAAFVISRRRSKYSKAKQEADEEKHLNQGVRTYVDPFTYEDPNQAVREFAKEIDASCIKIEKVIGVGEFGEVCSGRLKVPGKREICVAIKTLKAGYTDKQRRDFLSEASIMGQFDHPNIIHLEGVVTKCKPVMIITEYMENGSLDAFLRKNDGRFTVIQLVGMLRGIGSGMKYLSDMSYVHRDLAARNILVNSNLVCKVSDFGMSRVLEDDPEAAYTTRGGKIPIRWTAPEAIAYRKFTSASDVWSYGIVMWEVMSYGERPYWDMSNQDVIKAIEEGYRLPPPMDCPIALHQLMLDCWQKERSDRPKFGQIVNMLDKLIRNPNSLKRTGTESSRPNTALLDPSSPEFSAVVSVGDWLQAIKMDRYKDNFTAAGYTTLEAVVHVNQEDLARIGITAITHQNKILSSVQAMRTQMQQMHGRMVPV

TSSK3/STK22C = biological target: T1, TSSK3/STK22C (Homo sapiens, UniProt Q96PN8); experiment: biochemical; conditions: read-out: % enzyme activity, 1 μM; Run 1, Run 2
T1 sequence (Q96PN8 1-268): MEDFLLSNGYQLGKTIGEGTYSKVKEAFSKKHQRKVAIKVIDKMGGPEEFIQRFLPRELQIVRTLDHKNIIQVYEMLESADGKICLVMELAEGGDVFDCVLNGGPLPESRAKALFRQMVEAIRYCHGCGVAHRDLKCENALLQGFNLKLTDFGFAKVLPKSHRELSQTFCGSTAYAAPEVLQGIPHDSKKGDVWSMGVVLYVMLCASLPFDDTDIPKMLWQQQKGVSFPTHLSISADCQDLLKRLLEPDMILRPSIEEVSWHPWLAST

TLK1 = biological target: T2, TLK1 (Homo sapiens, UniProt Q9UKI8); conditions: 1 μM; Run 1, Run 2
T2 sequence (Q9UKI8 1-766): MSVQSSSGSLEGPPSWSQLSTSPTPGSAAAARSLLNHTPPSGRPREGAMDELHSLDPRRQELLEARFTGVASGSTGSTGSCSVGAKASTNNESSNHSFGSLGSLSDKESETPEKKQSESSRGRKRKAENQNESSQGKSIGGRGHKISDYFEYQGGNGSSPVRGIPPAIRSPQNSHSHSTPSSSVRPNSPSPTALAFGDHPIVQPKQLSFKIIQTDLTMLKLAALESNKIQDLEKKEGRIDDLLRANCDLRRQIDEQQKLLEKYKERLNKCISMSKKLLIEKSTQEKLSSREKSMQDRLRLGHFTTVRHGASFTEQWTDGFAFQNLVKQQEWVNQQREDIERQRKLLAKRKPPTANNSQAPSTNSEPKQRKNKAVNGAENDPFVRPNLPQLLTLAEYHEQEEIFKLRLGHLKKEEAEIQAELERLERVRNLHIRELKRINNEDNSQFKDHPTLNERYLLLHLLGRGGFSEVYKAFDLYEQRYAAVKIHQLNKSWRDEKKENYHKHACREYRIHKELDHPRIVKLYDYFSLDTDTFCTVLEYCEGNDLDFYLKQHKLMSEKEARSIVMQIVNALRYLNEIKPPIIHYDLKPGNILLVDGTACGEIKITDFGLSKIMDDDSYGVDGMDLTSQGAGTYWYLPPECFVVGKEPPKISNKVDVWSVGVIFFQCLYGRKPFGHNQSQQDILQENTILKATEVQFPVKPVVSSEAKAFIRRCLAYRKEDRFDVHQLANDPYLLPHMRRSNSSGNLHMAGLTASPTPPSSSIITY

PYK2 = PYK2 (Homo sapiens, UniProt Q14289); experiment: biochemical; conditions: read-out: % enzyme activity, 1 μM; Run 1, Run 2
JNK1 = JNK1 (Homo sapiens, UniProt P45983); conditions: 1 μM; Run 1, Run 2
MELK = MELK (Homo sapiens, UniProt Q14680); conditions: 1 μM; Run 1, Run 2
GRK4 = GRK4 (Homo sapiens, UniProt P32298); experiment: biochemical; conditions: read-out: % enzyme activity, 1 μM; Run 1, Run 2
Chain of GRK4 (P32298 whole entry): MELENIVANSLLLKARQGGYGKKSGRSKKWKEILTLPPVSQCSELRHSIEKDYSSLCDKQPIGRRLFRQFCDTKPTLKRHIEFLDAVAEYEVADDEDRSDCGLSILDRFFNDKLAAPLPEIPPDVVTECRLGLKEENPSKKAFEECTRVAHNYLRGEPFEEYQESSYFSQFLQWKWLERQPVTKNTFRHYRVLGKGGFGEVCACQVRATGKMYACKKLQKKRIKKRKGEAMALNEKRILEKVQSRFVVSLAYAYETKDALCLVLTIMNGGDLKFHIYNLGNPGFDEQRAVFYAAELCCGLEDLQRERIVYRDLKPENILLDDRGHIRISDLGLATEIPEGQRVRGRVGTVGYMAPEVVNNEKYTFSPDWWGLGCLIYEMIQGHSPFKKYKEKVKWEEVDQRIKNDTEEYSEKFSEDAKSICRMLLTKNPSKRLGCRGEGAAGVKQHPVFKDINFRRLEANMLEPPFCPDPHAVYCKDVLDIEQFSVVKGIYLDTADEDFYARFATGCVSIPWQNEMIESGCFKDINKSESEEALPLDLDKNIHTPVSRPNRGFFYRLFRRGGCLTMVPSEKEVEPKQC

KSR2 = biological target: T3, KSR2 (Homo sapiens, UniProt Q6VAB6); experiment: biochemical; conditions: read-out: % enzyme activity, 1 μM; Run 1, Run 2
T3 sequence (Q6VAB6 1-950): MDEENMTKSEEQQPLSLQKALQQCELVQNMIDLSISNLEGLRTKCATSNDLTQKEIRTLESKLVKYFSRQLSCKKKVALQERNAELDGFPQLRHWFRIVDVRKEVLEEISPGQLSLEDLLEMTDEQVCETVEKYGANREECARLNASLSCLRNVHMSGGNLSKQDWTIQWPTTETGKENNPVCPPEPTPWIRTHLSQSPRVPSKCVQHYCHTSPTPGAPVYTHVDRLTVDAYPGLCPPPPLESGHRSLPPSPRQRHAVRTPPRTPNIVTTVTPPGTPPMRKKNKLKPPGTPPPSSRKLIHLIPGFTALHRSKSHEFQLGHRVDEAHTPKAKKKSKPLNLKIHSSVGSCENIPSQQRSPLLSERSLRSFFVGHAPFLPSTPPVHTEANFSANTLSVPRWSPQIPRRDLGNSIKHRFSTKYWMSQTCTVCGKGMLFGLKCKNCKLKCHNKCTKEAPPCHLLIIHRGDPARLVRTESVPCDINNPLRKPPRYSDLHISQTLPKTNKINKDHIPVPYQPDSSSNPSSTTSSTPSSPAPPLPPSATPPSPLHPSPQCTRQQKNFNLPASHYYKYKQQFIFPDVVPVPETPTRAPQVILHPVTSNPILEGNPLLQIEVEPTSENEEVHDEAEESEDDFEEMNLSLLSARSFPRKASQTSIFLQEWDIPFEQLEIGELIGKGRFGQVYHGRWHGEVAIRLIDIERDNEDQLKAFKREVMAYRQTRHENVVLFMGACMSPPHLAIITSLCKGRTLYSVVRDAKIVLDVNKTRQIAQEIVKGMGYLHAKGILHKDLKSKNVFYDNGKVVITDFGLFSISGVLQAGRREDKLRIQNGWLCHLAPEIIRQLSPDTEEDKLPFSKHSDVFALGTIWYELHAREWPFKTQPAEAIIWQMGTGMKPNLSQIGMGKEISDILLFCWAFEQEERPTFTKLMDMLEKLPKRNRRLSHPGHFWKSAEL

Chain of TRKC (Q16288 32-839): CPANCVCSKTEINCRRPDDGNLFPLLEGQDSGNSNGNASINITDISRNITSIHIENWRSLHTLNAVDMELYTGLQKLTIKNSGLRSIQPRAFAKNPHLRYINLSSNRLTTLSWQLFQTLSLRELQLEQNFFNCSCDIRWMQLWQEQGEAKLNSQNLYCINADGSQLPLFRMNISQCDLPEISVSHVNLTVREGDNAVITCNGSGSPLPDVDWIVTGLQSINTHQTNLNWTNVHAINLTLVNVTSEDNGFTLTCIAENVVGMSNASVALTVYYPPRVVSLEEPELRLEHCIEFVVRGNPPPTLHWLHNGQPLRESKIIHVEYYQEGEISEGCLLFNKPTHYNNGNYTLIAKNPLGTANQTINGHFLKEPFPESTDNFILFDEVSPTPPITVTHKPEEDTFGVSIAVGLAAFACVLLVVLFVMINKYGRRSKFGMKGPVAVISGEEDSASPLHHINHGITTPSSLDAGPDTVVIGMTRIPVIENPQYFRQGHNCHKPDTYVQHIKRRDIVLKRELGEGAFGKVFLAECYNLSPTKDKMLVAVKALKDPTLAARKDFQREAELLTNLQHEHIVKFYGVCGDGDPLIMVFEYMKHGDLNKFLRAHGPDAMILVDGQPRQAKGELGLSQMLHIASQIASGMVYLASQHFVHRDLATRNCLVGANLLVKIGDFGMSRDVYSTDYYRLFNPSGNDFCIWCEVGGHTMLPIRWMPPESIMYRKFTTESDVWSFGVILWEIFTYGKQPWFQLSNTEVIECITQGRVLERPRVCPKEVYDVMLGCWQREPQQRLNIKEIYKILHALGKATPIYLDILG
Chain of CDK6/cyclin D3 (Q00534 whole entry): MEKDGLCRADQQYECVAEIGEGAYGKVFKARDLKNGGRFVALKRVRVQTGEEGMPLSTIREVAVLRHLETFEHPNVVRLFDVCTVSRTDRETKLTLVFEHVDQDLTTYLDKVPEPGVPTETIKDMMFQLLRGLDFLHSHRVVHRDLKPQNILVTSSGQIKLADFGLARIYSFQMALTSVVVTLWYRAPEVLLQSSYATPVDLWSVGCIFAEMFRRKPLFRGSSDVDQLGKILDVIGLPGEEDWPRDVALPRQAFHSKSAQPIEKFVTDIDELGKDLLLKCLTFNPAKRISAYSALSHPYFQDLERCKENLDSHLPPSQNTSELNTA
Chain of CDK6/cyclin D3 (P30281 whole entry partner): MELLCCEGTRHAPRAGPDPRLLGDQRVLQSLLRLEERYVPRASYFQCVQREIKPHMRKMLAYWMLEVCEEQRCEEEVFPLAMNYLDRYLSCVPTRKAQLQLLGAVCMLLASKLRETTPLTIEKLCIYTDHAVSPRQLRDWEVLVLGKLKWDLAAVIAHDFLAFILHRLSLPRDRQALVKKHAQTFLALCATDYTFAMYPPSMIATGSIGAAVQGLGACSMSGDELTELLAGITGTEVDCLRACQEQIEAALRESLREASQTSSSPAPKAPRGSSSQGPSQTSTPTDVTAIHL

| SMILES | remaining activity at 1 µM (CDK6/cyclin D3) | % enzyme activity (TRKC) | % enzyme activity (SRPK1) | remaining activity at 1 µM (PAK6) | % enzyme activity (PKCeta) | remaining activity at 1 µM (CDK3/cyclin E) | remaining activity at 1 µM (ACK1) | remaining activity at 1 µM (IR) | % enzyme activity (PKCa) | % enzyme activity (EPHA4) | remaining activity at 1 µM (TSSK3/STK22C) | % enzyme activity (TLK1) | remaining activity at 1 µM (PYK2) | % enzyme activity (JNK1) | % enzyme activity (MELK) | remaining activity at 1 µM (GRK4) | remaining activity at 1 µM (KSR2) |
| --- | --- | --- | --- | --- | --- | --- | --- | --- | --- | --- | --- | --- | --- | --- | --- | --- | --- |
| COc1cc(-c2cncc(-c3ccc(N4CCN(C)CC4)cc3)c2C)cc(F)c1C(N)=O [Compound 26a, 2-Fluoro-6-methoxy-4-(4-methyl-5-(4-(4-methylpiperazin-1-yl)phenyl)pyridin-3-yl)benzamide] | 86.3% | 101.44% | 105.40% | 102% | 93.90% | 82.7% | 65.5% | 102% | 89.62% | 91.81% | 96.6% | 107.91% | 85.9% | 88.65% | 98.82% | 80.4% | 96.9% |
| COc1cc(-c2cncc(-c3ccc(N4C[C@@H](C)N(C)[C@@H](C)C4)cc3)c2C)cc(F)c1C(N)=O [Compound 26c, 2-Fluoro-6-methoxy-4-(4-methyl-5-(4-((3R,5S)-3,4,5-trimethylpiperazin-1-yl)phenyl)pyridin-3-yl)benzamide] | 103% | 97.50% | 81.70% | 96.3% | 98.10% | 78.7% | 79.5% | 100% | 89.76% | 98.76% | 96.6% | 100.84% | 88.6% | 85.74% | 99.30% | 97.1% | 98.5% |
